ChEMBL document CHEMBL4808217, “Design, Synthesis, and Characterization of 4-Aminoquinazolines as Potent Inhibitors of the G Protein-Coupled Receptor Kinase 6 (GRK6) for the Treatment of Multiple Myeloma” (J Med Chem, 2021)

Legend:
[1] = molecular target: T1, Rhodopsin kinase GRK7 (Homo sapiens, UniProt Q8WTQ7); assay: Inhibition of recombinant full length human GRK7 using casein as substrate incubated for 40 mins in presence of [gamma-33ATP] by scintillation counting based radiometry assay
T1 sequence (Q8WTQ7 whole entry): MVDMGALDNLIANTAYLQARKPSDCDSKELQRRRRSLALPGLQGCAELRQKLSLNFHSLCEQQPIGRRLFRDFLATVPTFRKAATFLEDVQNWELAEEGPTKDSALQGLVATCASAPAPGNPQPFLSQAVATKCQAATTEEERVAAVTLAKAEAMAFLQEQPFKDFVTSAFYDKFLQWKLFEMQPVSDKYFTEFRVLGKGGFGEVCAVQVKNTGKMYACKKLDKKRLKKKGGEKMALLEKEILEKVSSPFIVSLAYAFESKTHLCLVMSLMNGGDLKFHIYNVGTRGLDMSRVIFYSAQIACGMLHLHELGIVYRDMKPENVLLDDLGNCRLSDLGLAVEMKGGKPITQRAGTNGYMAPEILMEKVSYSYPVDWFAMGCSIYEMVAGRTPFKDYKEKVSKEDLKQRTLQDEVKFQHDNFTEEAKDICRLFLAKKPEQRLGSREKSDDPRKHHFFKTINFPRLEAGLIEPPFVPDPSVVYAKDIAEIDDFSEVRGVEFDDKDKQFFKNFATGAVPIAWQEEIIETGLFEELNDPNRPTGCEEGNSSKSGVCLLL

[2] = molecular target: G protein-coupled receptor kinase 6 (Homo sapiens, UniProt P43250); assay: Binding affinity to FLAG-tagged GRK6 in human KMS11 cells incubated for […] by ITDR assay; type: cell-based, KMS-11
[3] = molecular target: T2, Rhodopsin kinase GRK1 (Homo sapiens, UniProt Q15835); assay: Inhibition of human GRK1 using casein as substrate in presence of [gamma33P]ATP by radiometric hotspot kinase assay
T2 sequence (Q15835 whole entry): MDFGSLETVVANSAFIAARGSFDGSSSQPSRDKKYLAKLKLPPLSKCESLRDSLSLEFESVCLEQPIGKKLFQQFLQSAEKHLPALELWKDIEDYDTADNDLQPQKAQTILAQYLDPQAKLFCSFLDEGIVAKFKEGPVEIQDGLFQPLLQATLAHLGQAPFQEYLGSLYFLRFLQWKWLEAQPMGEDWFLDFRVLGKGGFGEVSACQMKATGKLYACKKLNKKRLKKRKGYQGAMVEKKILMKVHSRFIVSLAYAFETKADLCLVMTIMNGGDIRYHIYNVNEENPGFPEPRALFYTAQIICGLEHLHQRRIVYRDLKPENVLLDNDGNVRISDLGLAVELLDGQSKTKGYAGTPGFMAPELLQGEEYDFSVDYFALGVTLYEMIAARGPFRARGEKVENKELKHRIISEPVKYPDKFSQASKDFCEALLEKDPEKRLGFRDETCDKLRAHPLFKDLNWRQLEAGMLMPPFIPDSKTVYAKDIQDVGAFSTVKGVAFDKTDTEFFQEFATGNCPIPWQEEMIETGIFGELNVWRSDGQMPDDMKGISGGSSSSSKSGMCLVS

Chain of G protein-coupled receptor kinase 6 (P43250 whole entry): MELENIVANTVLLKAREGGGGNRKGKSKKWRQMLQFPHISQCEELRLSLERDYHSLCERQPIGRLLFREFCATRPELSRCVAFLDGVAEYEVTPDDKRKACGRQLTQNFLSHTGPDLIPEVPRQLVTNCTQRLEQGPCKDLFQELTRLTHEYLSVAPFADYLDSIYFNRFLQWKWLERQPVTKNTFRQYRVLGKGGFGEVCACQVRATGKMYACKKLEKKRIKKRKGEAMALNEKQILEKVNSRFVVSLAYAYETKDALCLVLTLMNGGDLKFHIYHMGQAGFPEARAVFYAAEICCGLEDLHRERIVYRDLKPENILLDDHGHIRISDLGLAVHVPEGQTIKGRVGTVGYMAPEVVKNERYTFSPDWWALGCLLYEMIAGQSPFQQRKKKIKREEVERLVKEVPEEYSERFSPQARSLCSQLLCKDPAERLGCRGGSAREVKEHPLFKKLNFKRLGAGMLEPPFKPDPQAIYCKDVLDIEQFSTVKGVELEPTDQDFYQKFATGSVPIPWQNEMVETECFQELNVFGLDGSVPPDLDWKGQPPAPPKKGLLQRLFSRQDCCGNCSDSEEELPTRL

IC50 [1]: 0.0064 µM | IC50 [2]: 0.03 µM | IC50 [3]: 0.052 µM
SMILES: CCc1cc(Nc2nc(NCc3ccc(Cl)cc3OC)nc3cccc(OC)c23)n[nH]1
